Source: article PMC10059756, “New Thienobenzo/Naphtho-Triazoles as Butyrylcholinesterase Inhibitors: Design, Synthesis and Computational Study” (International Journal of Molecular Sciences, 2023)

Assays:
[1] = biological target: BChE (EC 3.1.1.8, equine serum) (Equus caballus, UniProt P81908); experiment: biochemical; type: biochemical; details: for IC50: Ellman's method, 5 min pre-incubation at 4 °C, triplicate
[2] = biological target: AChE (EC 3.1.1.7, Electrophorus electricus) (Electrophorus electricus, UniProt O42275); experiment: biochemical; type: biochemical; details: for IC50: Ellman's method, 5 min pre-incubation at 4 °C, triplicate
TNFα production = details: cited from earlier work; for anti-inflammatory activity: previous series
BChE = test system: BChE; parameters: method as in PMID 35870364, PMID 35228009; details: previous research; cited from earlier work

AChE (EC 3.1.1.7, Electrophorus electricus), sequence (O42275 24-633): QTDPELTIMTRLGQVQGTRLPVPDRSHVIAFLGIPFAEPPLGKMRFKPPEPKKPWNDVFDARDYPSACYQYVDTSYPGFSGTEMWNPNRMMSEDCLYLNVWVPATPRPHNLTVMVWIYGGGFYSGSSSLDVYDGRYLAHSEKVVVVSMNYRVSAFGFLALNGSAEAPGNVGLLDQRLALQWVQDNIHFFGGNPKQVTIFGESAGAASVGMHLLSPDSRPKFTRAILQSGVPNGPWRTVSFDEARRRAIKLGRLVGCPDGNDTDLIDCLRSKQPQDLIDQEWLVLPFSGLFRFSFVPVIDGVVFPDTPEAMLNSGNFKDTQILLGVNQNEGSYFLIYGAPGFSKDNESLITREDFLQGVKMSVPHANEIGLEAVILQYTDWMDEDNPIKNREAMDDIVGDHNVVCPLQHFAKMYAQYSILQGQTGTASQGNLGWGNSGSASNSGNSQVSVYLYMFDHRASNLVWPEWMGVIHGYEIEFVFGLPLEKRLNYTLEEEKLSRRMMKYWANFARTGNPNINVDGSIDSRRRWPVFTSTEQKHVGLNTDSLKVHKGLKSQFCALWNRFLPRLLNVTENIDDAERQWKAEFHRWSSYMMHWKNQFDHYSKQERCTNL
BChE (EC 3.1.1.8, equine serum), sequence (P81908 whole entry): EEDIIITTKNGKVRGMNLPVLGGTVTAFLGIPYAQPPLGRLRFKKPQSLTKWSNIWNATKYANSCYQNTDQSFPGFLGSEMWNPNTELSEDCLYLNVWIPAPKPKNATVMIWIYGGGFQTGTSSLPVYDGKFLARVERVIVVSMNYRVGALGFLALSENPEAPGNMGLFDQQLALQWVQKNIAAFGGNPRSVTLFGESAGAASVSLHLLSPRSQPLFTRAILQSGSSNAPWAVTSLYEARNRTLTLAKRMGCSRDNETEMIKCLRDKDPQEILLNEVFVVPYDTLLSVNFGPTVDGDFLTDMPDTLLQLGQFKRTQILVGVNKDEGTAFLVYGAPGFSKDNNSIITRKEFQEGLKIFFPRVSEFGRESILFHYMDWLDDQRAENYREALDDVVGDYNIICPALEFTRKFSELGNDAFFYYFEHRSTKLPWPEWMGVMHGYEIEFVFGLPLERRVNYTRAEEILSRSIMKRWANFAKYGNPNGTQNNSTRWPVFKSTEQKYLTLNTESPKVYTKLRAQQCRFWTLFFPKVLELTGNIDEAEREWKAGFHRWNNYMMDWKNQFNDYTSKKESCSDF

| Structure (SMILES) | IC50 [1] [µM] | IC50 [2] [µM] | also measured |
| --- | --- | --- | --- |
| COc1ccc(Cn2nnc3ccc4ccc(OC)cc4c32)cc1 [Compound 2] | – | – | inhibitory activity toward BChE (in words) ([1]; final concentrations 10–500 μM): no inhibitory activity; inhibitory activity toward AChE (in words) ([2]; final concentrations 10–500 μM): no inhibitory activity; anti-inflammatory activity (TNFα production): best anti-inflammatory activity of all the tested compounds |
| C=CCn1nnc2ccc3sccc3c21 [structure C, reference compound] | – | – | IC50 (BChE): 3.8 µM; TNFα production inhibition (TNFα production; LPS-stimulated human PBMCs): good TNFα production inhibition |
| COc1ccc(CCn2nnc3c2-c2ccsc2CC3)cc1 [Compound 16] | 119 | 145 | – |
| FC(F)(F)Oc1ccc(Cn2nnc3c2-c2ccsc2CC3)cc1 [Compound 15, 1-(4-(trifluoromethoxy)benzyl)-4,5-dihydro-1H-thieno[3′,2′:3,4]benzo[1,2-d][1,2,3]triazole] | – | 88.7 | – |
| FC(F)(F)c1ccc(Cn2nnc3c2-c2ccsc2CC3)cc1 [Compound 14, 1-(4-(trifluoromethyl)benzyl)-4,5-dihydro-1H-thieno[3′,2′:3,4]benzo[1,2-d][1,2,3]triazole] | > 150 | 118 | – |
| COc1ccc(Cn2nnc3ccc4sccc4c32)cc1 [Compound 3, 1-(4-methoxybenzyl)-1H-thieno[3′,2′:3,4]benzo[1,2-d][1,2,3]triazole] | 25.5 | 116 | – |
| c1csc(Cn2nnc3ccc4sccc4c32)c1 [Compound 5, 1-(thiophen-2-ylmethyl)-1H-thieno[3′,2′:3,4]benzo[1,2-d][1,2,3]triazole] | 23.4 | 119 | – |
| CC(C)n1nnc2ccc3ccc(Cl)cc3c21 [Compound 1] | 39.6 | 59.9 | anti-inflammatory activity (TNFα production): ten times weaker anti-inflammatory activity than 2 |
| OCCCCn1nnc2ccc3sccc3c21 [Compound 12, 4-(1H-thieno[3′,2′:3,4]benzo[1,2-d][1,2,3]triazol-1-yl)butan-1-ol] | 107 | – | – |
| COc1ccc(CCn2nnc3ccc4sccc4c32)cc1 [Compound 9, 1-(4-methoxyphenethyl)-1H-thieno[3′,2′:3,4]benzo[1,2-d][1,2,3]triazole] | 18.6 | – | – |
| c1cc2c(s1)CCc1nnn(CCN3CCOCC3)c1-2 [Compound 17, 4-(2-(4,5-dihydro-1H-thieno[3′,2′:3,4]benzo[1,2-d][1,2,3]triazol-1-yl)ethyl)morpholine] | – | 45.6 | – |
| Fc1ccc(Cn2nnc3ccc4sccc4c32)cc1 [Compound 4, 1-(4-fluorobenzyl)-1H-thieno[3′,2′:3,4]benzo[1,2-d][1,2,3]triazole] | 37.5 | 97 | – |
| OCCCCn1nnc2c1-c1ccsc1CC2 [Compound 19, 4-(4,5-dihydro-1H-thieno[3′,2′:3,4]benzo[1,2-d][1,2,3]triazol-1-yl)butan-1-ol] | 74.1 | – | – |
| CCOC(=O)CCn1nnc2ccc3sccc3c21 [Compound 6, Ethyl 3-(1H-thieno[3′,2′:3,4]benzo[1,2-d][1,2,3]triazol-1-yl)propanoate] | 39.6 | – | – |
| Fc1ccc(Cn2nnc3c2-c2ccsc2CC3)cc1 [Compound 13, 1-(4-fluorobenzyl)-4,5-dihydro-1H-thieno[3′,2′:3,4]benzo[1,2-d][1,2,3]triazole] | 58 | – | – |
| FC(F)(F)c1ccc(Cn2nnc3ccc4sccc4c32)cc1 [Compound 7, 1-(4-(trifluoromethyl)benzyl)-1H-thieno[3′,2′:3,4]benzo[1,2-d][1,2,3]triazole] | > 150 | 140 | – |
| COc1ccc2c3c1O[C@H]1C[C@@H](O)C=C[C@@]31CCN(C)C2 [Galantamine, galantamine] | – | – | IC50 (BChE): 7.9 µM |
| FC(F)(F)Oc1ccc(Cn2nnc3ccc4sccc4c32)cc1 [Compound 8, 1-(4-(trifluoromethoxy)benzyl)-1H-thieno[3′,2′:3,4]benzo[1,2-d][1,2,3]triazole] | 214 | 68 | – |
